Where two headings read alike, the source gives them in different places.
Assays:
[1] = Antianemic activity (iron-deficient diet); format: in vivo, rats; conditions: iron-deficient diet + substance
Description: (§1) In the aim of correctly evaluating activity, bio-availability and toxicity of the products under exam, they were suitably vehicled by means of dissolution in mixtures of H2 O/propylene glycol/sorbitol, in equal proportions, so as to obtain for the experimental tests solutions at identical Fe^+++ titre (4 mg/ml).

[2] = Acute toxicity after oral administration in the male rat; format: in vivo; conditions: for N° DEAD ANIMALS: 10 animals
Description: ACUTE TOXICITY OF UB 1004 AFTER ORAL
ADMINISTRATION IN THE MALE RAT

[3] = Gastric tolerability: values of the lesions found on the gastric mucosa; conditions: for value of the lesions on the gastric mucosa / value of the lesions on the gastric mucosa, Media (mean): oral t.i.d., 100 mg/kg iron; for value of the lesions on the gastric mucosa, Media (mean): mean of 7 animals
Description: as §1

[4] = Solubility / precipitation; format: physicochemical
[5] = rat, in vivo, po, 100 mg/kg
Description: as §1

[6] = background; cited from earlier work
[7] = oral, background; cited from earlier work
[8] = oral, 25 mg/Kg Fe = 367.5 mg/Kg
[9] = oral, 100 mg/Kg Fe = 1470 mg/Kg
[10] = oral, 200 mg/Kg Fe = 2940 mg/Kg
[11] = oral, 400 mg/Kg Fe = 5880 mg/Kg

| Molecule | ERYTHROCYTES ([1]; 7 (time unit not given)) | HEMOGLOBIN ([1]; 7 (time unit not given)) [g/100 ml] | SYDEREMIA ([1]; 7 (time unit not given)) [μg/100 ml] | ERYTHROCYTES ([1]; 14 (time unit not given)) | HEMOGLOBIN ([1]; 14 (time unit not given)) [g/100 ml] | SYDEREMIA ([1]; 14 (time unit not given)) [μg/100 ml] | ERYTHROCYTES ([1]; 21 (time unit not given)) | HEMOGLOBIN ([1]; 21 (time unit not given)) [g/100 ml] | SYDEREMIA ([1]; 21 (time unit not given)) [μg/100 ml] | value of the lesions on the gastric mucosa ([3]; animal 1) | value of the lesions on the gastric mucosa ([3]; animal 2) | value of the lesions on the gastric mucosa ([3]; animal 3) | value of the lesions on the gastric mucosa ([3]; animal 4) | value of the lesions on the gastric mucosa ([3]; animal 5) | value of the lesions on the gastric mucosa ([3]; animal 6) | value of the lesions on the gastric mucosa ([3]; animal 7) | value of the lesions on the gastric mucosa, Media (mean) [3] | Solubility at pH 8 [4] | also measured |
| --- | --- | --- | --- | --- | --- | --- | --- | --- | --- | --- | --- | --- | --- | --- | --- | --- | --- | --- | --- |
| O=S(=O)([O-])[O-].[Fe+2] [FERROUS SULFATE, Ferrous Sulphate, reference compound] | 7.07 ± 0.76 10^6 /mm^3 | 14.38 ± 1.91 | 247.6 ± 87.0 | 7.34 ± 0.46 10^6 /mm^3 | 15.63 ± 0.33 | 198.4 ± 52.2 | 6.94 ± 0.42 10^6 /mm^3 | 14.09 ± 1.50 | 171.0 ± 19.9 | 1 | 2 | 1 | 1 | 3 | 1 | 3 | 1.70 |  | toxicity ([2]; conclusions): considerably toxic; gastric damage ([3]; conclusions): harmful at the gastric level |
| UB 1004: iron (ferric) complex of lysozyme glutarate, obtained in Example 1(b) with ferric glycerophosphate | 7.20 ± 0.58 10^6 /mm^3 | 14.43 ± 1.13 | 178.6 ± 57.1 | 7.20 ± 0.48 10^6 /mm^3 | 15.70 ± 1.00 | 177.5 ± 42.8 | 7.13 ± 0.26 10^6 /mm^3 | 15.58 ± 0.97 | 184.3 ± 31.8 | 0 | 0 | 0 | 0 | 0 | 0 | 0 | 0 | Complete | % DEATH-RATE [2, 8]: 0.00%; N° DEAD ANIMALS [2, 8]: 0; % DEATH-RATE ([2]; oral, 50 mg/Kg Fe = 735 mg/Kg): 0.00%; N° DEAD ANIMALS ([2]; oral, 50 mg/Kg Fe = 735 mg/Kg): 0; % DEATH-RATE [2, 9]: 0.00%; N° DEAD ANIMALS [2, 9]: 0; % DEATH-RATE [2, 10]: 0.00%; N° DEAD ANIMALS [2, 10]: 0; % DEATH-RATE [2, 11]: 0.00%; N° DEAD ANIMALS [2, 11]: 0; DL50 ([2]; oral, male rat, up to 400 mg/Kg Fe): NOT DETERMINABLE; Precipitation with (NH4)2SO4 at 30% ([4]; (NH4)2SO4 30%): Complete; Solubility of the precipitate with (NH4)2SO4 in water ([4]; water): Complete |
| Ferritin |  | 13.88 ± 0.93 | 196.3 ± 88.9 | 6.99 ± 0.58 10^6 /mm^3 | 15.46 ± 0.93 | 217.1 ± 52.7 | 6.99 ± 0.13 10^6 /mm^3 | 14.43 ± 1.12 | 227.6 ± 25.7 |  |  |  |  |  |  |  |  |  | value of the lesions on the gastric mucosa, Media (mean) [5]: 0.28; water solubility [6]: hydrosoluble; gastrointestinal side-effects [7]: does not have gastrointestinal side-effects |
| lysozyme glutarate: lysozyme acylated with glutaric anhydride, Example 1(a) |  |  |  |  |  |  |  |  |  |  |  |  |  |  |  |  |  | Complete | Solubility at pH 3 ([4]; pH 3): nil |

Reference: patent US4939092A, “Proteinaceous derivatives containing iron in highly bioavailable form, preparation thereof and pharmaceutical compositions containing them” (Unibois S.p.A., priority 1987, dated 1990)
